Read-outs that look alike come from different tables or passages of the source.
Columns and labels:
JNK3 = target: T1, JNK3 (Homo sapiens, UniProt P53779); experiment: KINOMEscan ATP site-dependent binding assay, JNK3; conditions: for Kd: KINOMEscan, mixture of E/Z isomers, read-out: Binding affinity JNK3 Kd
T1 construct: purchased Eurofins Pharma Discovery (KINOMEscan platform)
Description: (§1) Selected compounds were submitted for dissociation constant (Kd) determination using the KINOMEscan platform (Eurofins Pharma Discovery, San Diego, CA, United States), as described previously ([Karaman et al., 2008]). […] Primary screening at fixed concentrations of compounds was performed in duplicate.

JNK1 = target: T2, JNK1 (Homo sapiens, UniProt P45983); experiment: KINOMEscan ATP site-dependent binding assay, JNK1; conditions: mixture of E/Z isomers, read-out: Binding affinity JNK1 Kd
T2 construct: purchased Eurofins Pharma Discovery (KINOMEscan platform)
T2 sequence (P45983 whole entry): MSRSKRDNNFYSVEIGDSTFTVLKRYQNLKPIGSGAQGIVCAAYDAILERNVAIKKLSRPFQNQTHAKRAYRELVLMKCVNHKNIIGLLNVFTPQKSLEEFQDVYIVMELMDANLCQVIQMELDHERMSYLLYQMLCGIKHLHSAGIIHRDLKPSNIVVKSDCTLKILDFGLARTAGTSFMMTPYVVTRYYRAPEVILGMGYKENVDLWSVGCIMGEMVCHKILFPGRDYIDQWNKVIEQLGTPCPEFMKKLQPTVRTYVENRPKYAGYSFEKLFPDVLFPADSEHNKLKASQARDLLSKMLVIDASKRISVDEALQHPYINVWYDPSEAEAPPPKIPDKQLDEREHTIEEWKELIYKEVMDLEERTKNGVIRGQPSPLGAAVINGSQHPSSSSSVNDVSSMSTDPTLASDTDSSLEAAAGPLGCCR
Description: as §1

JNK2 = target: T3, JNK2 (Homo sapiens, UniProt P45984); experiment: KINOMEscan ATP site-dependent binding assay, JNK2; conditions: mixture of E/Z isomers, read-out: Binding affinity JNK2 Kd
T3 construct: purchased Eurofins Pharma Discovery (KINOMEscan platform)
T3 sequence (P45984 whole entry): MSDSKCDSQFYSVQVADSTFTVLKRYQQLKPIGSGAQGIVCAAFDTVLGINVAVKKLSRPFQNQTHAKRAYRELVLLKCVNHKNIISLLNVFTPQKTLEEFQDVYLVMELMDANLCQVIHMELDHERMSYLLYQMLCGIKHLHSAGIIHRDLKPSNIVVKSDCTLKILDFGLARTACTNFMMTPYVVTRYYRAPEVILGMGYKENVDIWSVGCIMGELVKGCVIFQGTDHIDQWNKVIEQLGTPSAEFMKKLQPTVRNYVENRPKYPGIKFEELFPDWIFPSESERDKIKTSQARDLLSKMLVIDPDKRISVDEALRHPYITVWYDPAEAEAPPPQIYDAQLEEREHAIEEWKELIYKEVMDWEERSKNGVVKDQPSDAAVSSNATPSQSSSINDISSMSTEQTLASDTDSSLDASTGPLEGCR
Description: as §1

[1] = test system: NF-κB/AP-1 transcriptional activity in THP-1Blue cells; experiment: LPS-induced NF-κB/AP-1 alkaline phosphatase reporter assay in THP-1Blue cells; format: cell-based; conditions: Homo sapiens; LPS 250 ng/ml, 24 h
Description: (§2) All cells were cultured at 37°C in a humidified atmosphere containing 5% CO2. THP-1Blue cells obtained from InvivoGen (San Diego, CA, United States) were cultured in RPMI 1640 medium (Mediatech Inc., Herndon, VA, United States) supplemented with 10% (v/v) fetal bovine serum (FBS), 4.5 g/L glucose, 100 μg/ml streptomycin, 100 U/mL penicillin, 100 μg/ml phleomycin (Zeocin), and 10 μg/ml blasticidin S. Human monocyte-macrophage MonoMac-6 cells (Deutsche Sammlung von Mikroorganismen und Zellkulturen GmbH, Braunschweig, Germany) were grown in RPMI 1640 medium supplemented with 10% (v/v) FBS, 10 μg/ml bovine insulin, 100 μg/ml streptomycin, and 100 U/mL penicillin.
Activation of AP-1/NF-κB was measured using an alkaline phosphatase reporter gene assay in THP1-Blue cells. Human monocytic THP-1Blue cells are stably transfected with a secreted embryonic alkaline phosphatase gene that is under the control of a promoter inducible by AP-1/NF-κB. THP-1Blue cells (2 × 10^5 cells/well) were pretreated with test compound or DMSO (1% final concentration) for 30 min, followed by addition of 250 ng/ml LPS (from Escherichia coli K-235; Sigma Chemical Co., St. Louis, MO, United States) for 24 h, and alkaline phosphatase activity was measured in cell supernatants using QUANTI-Blue mix (InvivoGen) with absorbance at 655 nm and compared with positive control samples (LPS). The concentrations of compound that caused 50% inhibition of the AP-1/NF-κB reporter activity (IC50) were calculated.

[2] = test system: IL-6 production in MonoMac-6 cells; experiment: LPS-induced IL-6 production in MonoMac-6 cells (ELISA); format: cell-based; conditions: Homo sapiens, MONO-MAC-6; LPS 250 ng/ml, 24 h
Description: as §2
(§3) Human IL-6 ELISA kit (BD Biosciences, San Jose, CA, United States) was used to confirm the inhibitory effect of selected compounds on IL-6 production. MonoMac-6 cells were plated in 96-well plates at a density of 2 × 10^5 cells/well in culture medium supplemented with 3% (v/v) endotoxin-free FBS. Cells were pretreated with test compound or DMSO (1% final concentration) for 30 min, followed by addition of 250 ng/ml LPS for 24 h. IC50 values for IL-6 production were calculated by plotting the percentage inhibition against the logarithm of inhibitor concentration (at least five points). Multiplex human cytokine ELISA kit from Anogen (Mississauga, ON, Canada) was used to evaluate various cytokines (IL-1α, IL-1β, IL-6, GM-CSF, MCP-1, IFNγ, and TNF) in the supernatants of MonoMac-6 cells.

[3] = Solubility in DMSO for the binding affinity assay; format: physicochemical; conditions: insufficiently soluble in DMSO for the binding affinity assay
Excerpt: TABLE 1 Binding affinity (Kd) of compounds 1a-o and their inhibitory effect on LPS-induced NF-κB/AP-1 transcriptional activity in THP-1Blue cells and IL-6 production in MonoMac-6 cells. | column: Binding affinity / JNK1

[4] = test system: c-Jun (Ser63) phosphorylation in MonoMac-6 cells; experiment: LPS-induced c-Jun (Ser63) phosphorylation, Western blotting; format: cell-based, human; conditions: 30 min pretreatment, LPS 250 ng/ml 30 min, phospho-c-Jun/total c-Jun
Description: MonoMac-6 monocytic cells (10^7 cells) were incubated with different concentrations of compound 1j (final DMSO concentration of 0.5%) for 30 min at 37°C and then treated with LPS (250 ng/ml) or buffer for another 30 min at 37°C. Cells were washed twice with ice-cold phosphate buffer solution (pH 7.4), and cell lysates were prepared using lysis buffer (Cell Signaling Technology, Danvers, MA, United States). Cell lysates were separated on ExpressPlus 10% PAGE Gels (GenScript, Piscataway, NJ, United States) using TRIS-MOPS running buffer and transferred to nitrocellulose membranes. The blots were blocked overnight at 4°C in TRIS buffer (pH 7.4) + 0.1% Tween-20 (TBST) + 2.5% bovine serum albumin and probed with antibodies against phospho-c-Jun (Ser63) (Cell Signaling Technology), followed by horseradish peroxidase-conjugated secondary antibody (Cell Signaling Technology), and the blots were developed using Super-Signal West Femto chemiluminescent substrate (Thermo Fisher Scientific) and visualized with a FluorChem FC2 imaging system (Alpha Innotech Corporation, San Leandro, CA, United States). For measurement of total c-Jun signal, we stripped and reprobed the same Western blots that were used for phospho-c-Jun blots. […] Quantitation of the luminescent signals were performed using AlphaView software.

[5] = test system: proinflammatory cytokine production in MonoMac-6 cells; experiment: Multiplex human cytokine ELISA, LPS-stimulated MonoMac-6 cells; format: cell-based; conditions: 10 μM, LPS 250 ng/ml 24 h
Description: as §3

[6] = test system: NF-κB/AP-1 transcriptional activity in THP-1Blue cells; parameters: method as in Schepetkin et al., 2019; conditions: LPS-stimulated; ref Schepetkin et al., 2019; cited from earlier work
[7] = test system: IL-6 production in MonoMac-6 cells; parameters: method as in Schepetkin et al., 2019; conditions: LPS-stimulated; ref Schepetkin et al., 2019; cited from earlier work

T1 sequence (P53779 whole entry): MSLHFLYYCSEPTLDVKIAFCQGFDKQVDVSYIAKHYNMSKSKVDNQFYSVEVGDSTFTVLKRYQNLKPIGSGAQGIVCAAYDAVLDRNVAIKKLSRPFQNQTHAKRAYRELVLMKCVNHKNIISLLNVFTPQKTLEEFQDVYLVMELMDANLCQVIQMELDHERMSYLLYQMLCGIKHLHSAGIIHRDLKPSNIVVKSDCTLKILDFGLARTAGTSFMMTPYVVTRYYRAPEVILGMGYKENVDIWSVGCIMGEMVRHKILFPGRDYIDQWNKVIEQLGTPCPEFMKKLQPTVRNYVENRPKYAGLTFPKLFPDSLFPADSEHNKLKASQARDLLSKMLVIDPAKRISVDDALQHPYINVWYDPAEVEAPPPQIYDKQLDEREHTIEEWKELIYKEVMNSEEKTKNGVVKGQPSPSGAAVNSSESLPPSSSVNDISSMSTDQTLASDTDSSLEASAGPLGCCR

Row | SMILES | Kd (JNK3) [µM] | melting point | Kd (JNK1) [µM] | Kd (JNK2) [µM] | IC50 [1] [µM] | IC50 [2] [µM] | also measured
1 | O=c1c2ccccc2nc2n1-c1ccccc1C2=NOCc1ccccn1 [Compound 1i, 6-((pyridin-2-ylmethoxy)imino)indolo[2,1-b]quinazolin-12(6H)-one] | 1.5 ± 0.1 | 199 to 200 °C | 4 ± 0.9 | 3.9 ± 0.4 | ≥ 50 | ≥ 50 | 
2 | CCON=C1c2ccccc2-n2c1nc1ccccc1c2=O [Compound 1b, 6-(ethoxyimino)indolo[2,1-b]quinazolin-12(6H)-one] | 1.2 ± 0.4 | 117 °C | 3.2 ± 1.2 | 5.4 ± 0.6 | ≥ 50 | ≥ 50 | 
3 | O=c1c2ccccc2nc2n1-c1ccccc1C2=NOCc1ccc([N+](=O)[O-])cc1 [Compound 1h, 6-(((4-nitrobenzyl)oxy)imino)indolo[2,1-b]quinazolin-12(6H)-one] |  | 219 °C |  |  | ≥ 50 | ≥ 50 | Solubility [3]: Poor solubility ^b
4 | CC(=O)ON=C1c2ccccc2-n2c1nc1ccccc1c2=O [Compound 1j, 6-(acetoxyimino)indolo[2,1-b]quinazolin-12(6H)-one] | 0.18 ± 0.04 | 262 °C | 0.34 ± 0.04 | 0.49 ± 0.01 | 0.8 ± 0.2 | 1.7 ± 0.1 | Inhibition of LPS-induced c-Jun (S63) phosphorylation [4]: dose-dependent inhibition; Secretion of GM-CSF ([5]; vs DMSO-treated control): completely inhibited; Secretion of IL-1α ([5]; vs DMSO-treated control): completely inhibited; Secretion of IL-1β ([5]; vs DMSO-treated control): completely inhibited; Secretion of IL-6 ([5]; vs DMSO-treated control): completely inhibited; Secretion of MCP-1 ([5]; vs DMSO-treated control): completely inhibited; Secretion of TNF ([5]; vs DMSO-treated control): completely inhibited; Effect on IFN-γ production ([5]; low production of this cytokine after LPS): inconclusive
5 | NN=C1c2ccccc2-n2c1nc1ccccc1c2=O [Compound 1m, 6-hydrazonoindolo[2,1-b]quinazolin-12(6H)-one] |  | > 400 °C (dec.) |  |  | ≥ 50 | ≥ 50 | Solubility [3]: Poor solubility ^b
6 | CC(C)(C)ON=C1c2ccccc2-n2c1nc1ccccc1c2=O [Compound 1d, 6-(tert-butoxyimino)indolo[2,1-b]quinazolin-12(6H)-one] | 2.3 ± 0.3 | 229 °C | 9.3 ± 0.5 | 12 ± 1.4 | ≥ 50 | ≥ 50 | 
7 | C=CCON=C1c2ccccc2-n2c1nc1ccccc1c2=O [Compound 1c, 6-((allyloxy)imino)indolo[2,1-b]quinazolin-12(6H)-one] | 0.85 ± 0.01 | 163 °C | 3.6 ± 0.7 | 4.1 ± 0.1 | 18.9 ± 1.8 | ≥ 50 | 
8 | N#CCON=C1c2ccccc2-n2c1nc1ccccc1c2=O [Compound 1e, 2-(((12-oxoindolo[2,1-b]quinazolin-6(12H)-ylidene)amino)oxy)acetonitrile] | 1.5 ± 0.6 | 224 °C | 19.5 ± 3.5 | 17.5 ± 2.1 | ≥ 50 | ≥ 50 | JNK-3 selectivity over JNK-1 (JNK3; ratio of binding affinities): > 10 fold; JNK-3 selectivity over JNK-2 (JNK3; ratio of binding affinities): > 10 fold
9 | O=c1c2ccccc2nc2n1-c1ccccc1/C2=N\O [TRYP-Ox] |  |  |  |  |  |  | IC50 [6]: 3.8 ± 1.1 µM; IC50 [7]: 3.2 ± 1.2 µM
10 | O=c1c2ccccc2nc2n1-c1ccccc1C2=NOCc1ccccc1 [Compound 1f, 6-((benzyloxy)imino)indolo[2,1-b]quinazolin-12(6H)-one] | ≥ 30 | 206 °C |  |  | ≥ 50 | ≥ 50 | 
11 | O=c1c2ccccc2nc2n1-c1ccccc1C2=NNc1ccccc1 [Compound 1n, 6-(2-phenylhydrazono)indolo[2,1-b]quinazolin-12(6H)-one] |  | 223 °C |  |  | ≥ 50 | ≥ 50 | Solubility [3]: Poor solubility ^b
12 | O=c1c2ccccc2nc2n1-c1ccccc1C2=NOCc1c(F)c(F)c(F)c(F)c1F [Compound 1g, 6-(((pentafluorophenyl)methoxy)imino)indolo[2,1-b]quinazolin-12(6H)-one] | ≥ 30 | 183 °C |  |  | ≥ 50 | ≥ 50 | 
13 | CON=C1c2ccccc2-n2c1nc1ccccc1c2=O [Compound 1a, 6-(methoxyimino)indolo[2,1-b]quinazolin-12(6H)-one] | 1.4 ± 0.2 | 218 °C | 3.1 ± 0.8 | 5.6 ± 0.4 | 20.8 ± 5.3 | 23.5 ± 1.8 | 
14 | NC(=O)NN=C1c2ccccc2-n2c1nc1ccccc1c2=O [Compound 1o, 2-(12-oxoindolo[2,1-b]quinazolin-6(12H)-ylidene)hydrazinecarboxamide] |  | 266 °C |  |  | 3.3 ± 0.1 | 6.6 ± 1.2 | 
